From patent publication US20170056336A1, “CO-TARGETING ANDROGEN RECEPTOR SPLICE VARIANTS AND MTOR SIGNALING PATHWAY FOR THE TREATMENT OF CASTRATION-RESISTANT PROSTATE CANCER” (British Columbia Cancer Agency Branch, priority 2015, published 2017) come the findings set out here.

The test system of assay [1] is LNCaP95 xenografts. In words: Western blot analyses of protein lysates from xenografts. It is filed as in vivo, mice. In general terms: In western blotting, separated proteins are transferred to a membrane and probed.
The test system of assay [2] is LNCaP95 xenografts. In words: Immunohistochemistry of harvested xenografts. It is filed as in vivo, mice.
Assay [3] deals with LNCaP95 cells. In words: Cell proliferation BrdU immunoassay. It is filed as cell-based, human. Particulars: R1881 0.1 nM, 48 h, serum-free, Compound A 25 uM, enzalutamide 10 uM, BEZ-235 15 nM, everolimus 10 nM.
Assay [4] has as its target T1, AR NTD (Homo sapiens, UniProt P10275).
T1 sequence (P10275 1-558): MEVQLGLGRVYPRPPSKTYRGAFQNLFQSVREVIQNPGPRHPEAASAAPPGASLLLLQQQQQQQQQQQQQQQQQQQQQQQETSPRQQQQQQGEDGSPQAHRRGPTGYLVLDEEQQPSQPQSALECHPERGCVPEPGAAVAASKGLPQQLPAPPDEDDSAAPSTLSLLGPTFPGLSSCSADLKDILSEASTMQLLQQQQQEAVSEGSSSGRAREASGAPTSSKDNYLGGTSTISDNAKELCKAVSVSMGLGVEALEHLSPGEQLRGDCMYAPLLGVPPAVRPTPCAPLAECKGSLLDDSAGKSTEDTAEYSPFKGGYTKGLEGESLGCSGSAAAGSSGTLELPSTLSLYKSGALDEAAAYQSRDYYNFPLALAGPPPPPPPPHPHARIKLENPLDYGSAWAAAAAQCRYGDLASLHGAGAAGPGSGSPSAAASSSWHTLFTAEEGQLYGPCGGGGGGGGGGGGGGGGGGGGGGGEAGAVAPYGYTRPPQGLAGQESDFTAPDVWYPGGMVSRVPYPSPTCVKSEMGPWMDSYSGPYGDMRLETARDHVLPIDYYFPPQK
In words: AR NTD transactivation assay in LNCaP cells. Particulars: IL-6 50 ng/ml, 24 h. It is filed as cell-based. On the procedure:
Transactivation assays of the AR NTD were performed in LNCaP and LNCaP95 cells cotransfected with p5xGal4UAS-TATA-luciferase and AR NTD-Gal4DBD (FIG. 2D). […] LNCaP95 cells were harvested 24 h after the treatment of indicated compounds.
The AR NTD is essential for full transcriptional activities (Quayle, S. N. et. al., PNAS 2007, 104, 1331-1336). In LNCaP cells, transactivation of the AR NTD can be induced with IL-6 or by stimulation of the PKA pathway with FSK. In LNCaP95 cells, there is high intrinsic activity of the AR NTD which cannot be further induced by stimulation of these pathways.

In assay [5] the test system is genes regulated by FL-AR and AR-V7 in LNCaP95 cells. In words: Gene expression analysis (quantitative real-time RT-PCR) in LNCaP95 cells. It is filed as cell-based, human. (In general: Quantitative PCR measures a nucleic acid by following its amplification.)
Assay [6] addresses T2, AR (Homo sapiens, UniProt P10275, T878A).
T2 sequence (P10275 1-920 T878A): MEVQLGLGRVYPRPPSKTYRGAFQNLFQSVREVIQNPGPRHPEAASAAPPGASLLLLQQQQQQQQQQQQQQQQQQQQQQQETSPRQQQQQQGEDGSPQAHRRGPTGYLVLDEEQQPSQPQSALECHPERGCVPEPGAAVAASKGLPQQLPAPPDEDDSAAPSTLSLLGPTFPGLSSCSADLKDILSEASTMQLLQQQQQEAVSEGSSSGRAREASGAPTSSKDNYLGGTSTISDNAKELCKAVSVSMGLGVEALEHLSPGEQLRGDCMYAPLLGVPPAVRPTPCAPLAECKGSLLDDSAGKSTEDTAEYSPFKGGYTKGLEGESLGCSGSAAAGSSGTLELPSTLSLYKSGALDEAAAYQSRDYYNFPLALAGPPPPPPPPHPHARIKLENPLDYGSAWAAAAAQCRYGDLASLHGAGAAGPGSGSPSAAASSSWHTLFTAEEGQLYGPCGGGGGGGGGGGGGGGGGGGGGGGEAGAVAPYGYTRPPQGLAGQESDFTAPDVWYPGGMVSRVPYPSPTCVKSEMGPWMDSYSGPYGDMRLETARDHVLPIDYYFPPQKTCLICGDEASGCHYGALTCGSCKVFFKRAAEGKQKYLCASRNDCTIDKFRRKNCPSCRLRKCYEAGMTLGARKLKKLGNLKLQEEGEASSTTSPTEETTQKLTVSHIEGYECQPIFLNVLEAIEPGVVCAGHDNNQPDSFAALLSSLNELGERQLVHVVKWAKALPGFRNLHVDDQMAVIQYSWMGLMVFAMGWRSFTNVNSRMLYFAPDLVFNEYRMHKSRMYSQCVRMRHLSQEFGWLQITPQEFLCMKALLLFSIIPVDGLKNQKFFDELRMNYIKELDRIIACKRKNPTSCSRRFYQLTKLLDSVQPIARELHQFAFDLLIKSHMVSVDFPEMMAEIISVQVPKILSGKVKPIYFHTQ
In words: PSA-, ARR3-, PB-luciferase AR reporter assay in LNCaP95 cells. Particulars: LNCaP95 cells treated with androgen and BEZ-235 15 nM.

Assay [7] concerns mTOR and AR pathways in LNCaP95 cells. In words: Western blot analysis of mTOR and AR pathways in LNCaP95 cells. It is filed as cell-based, human. Particulars: for expression of UBE2C / pS6 levels: enzalutamide 10 uM; for pS6 levels: regardless of androgen status; for BEZ-235-increased protein levels of FL-AR, AR-V7 and PSA: elevations caused by BEZ-235 15 nM, LNCaP95 and LNCaP cells. How it is done:
Cells were harvested and whole-cell lysate (10 to 15 ug) was subjected to SDS-PAGE. Antibodies used were: AR (1:1000; Santa Cruz), AR-V7 (1:400; Precision), p110α (1:500; BD Bioscience), p110β (1:1000; abcam), […] (1:1000; abcam), p110δ (1:1000; abcam), UBE2C (Boston Biochem; 1:1000), PTEN (1:1000), pS6 (1:2000), pAktThr308 (1:1000), pAktSer473 (1:2000), p4EBP1 (1:1000), total-Akt (1:1000), total-S6 (1:1000), total-4EBP1 (1:1000), pERK/MAPK (1:1000), total-ERK/MAPK (1:1000) from Cell Signaling technology (Danvers, Mass.). β-actin (1:10,000, Abcam) was used as a loading control.
Protein levels of PSA were undetectable in LNCaP95 cells.

The test system of assay [8] is mTOR and AR pathways in parental LNCaP cells. In words: Western blot analysis of mTOR and AR pathways in parental LNCaP cells. It is filed as cell-based, human. Particulars: parental LNCaP cells, R1881 1 nM.
Where [9] appears, read: harvested tumors, Compound A 100 mg/kg, BEZ-235 5 mg/kg.
[10] abbreviates: absence of androgen, with BEZ-235.
The mark [11] stands for this setting: in response to androgen, Compound A 35 uM.
[12] abbreviates: LNCaP95 cells, Compound A 25 uM.

For the molecule `CC(C)(c1ccc(OC[C@H](O)CO)cc1)c1ccc(OC[C@H](O)CCl)cc1` [Compound A], the “levels of p4EBP1” value in assay [1] (harvested tumors, normalized to total 4EBP1) is “no significant change”. Besides, the “levels of pAkt” value in assay [1] (harvested tumors, normalized to total Akt) is reported as “no significant change”. Also, in assay [1] (setting [9]), the “protein levels of UBE2C” value is recorded as “reduced” and the “protein levels of pS6” value is given as “reduced”. The “protein levels of FKBP5” value in assay [1] (in vivo, monotherapies) is recorded as “reduced”. Also, in assay [2], the “apoptosis (TUNEL staining)” value is reported as “increased” and the “proliferation (Ki67 staining)” value is “significantly decreased”. Besides, in assay [2] (immunohistochemistry), the UBE2C staining entry is “reduced” and the pS6 staining result is on record as “reduced”. Besides, in assay [3], the “proliferation (BrdU incorporation)” value is on record as “inhibited”. For the same molecule, the “AR-NTD transactivation induced by IL-6” value in assay [4] is listed as “significantly inhibited”. Further, the “transcript levels of AR-V7 target genes (UBE2C, CDC20, Akt1)” value in assay [5] (absence of androgen) is “consistently reduced”. Besides, in assay [5] (setting [10]), the “BEZ-235-induced increase in transcript levels of AR-V7” value is listed as “blocked” and the “BEZ-235-induced levels of PSA transcript” value is given as “blocked”. Further, in assay [5] (setting [11]), the “expression of FKBP5” value was “inhibited”, the “expression of KLK3” value was “inhibited” and the “expression of TMPRSS2” value is listed as “inhibited”. Besides, the UBE2C levels result in assay [5] (monotherapy, regardless of androgen) is “attenuated”. Also, the “BEZ-235-increased PSA-, ARR3- and PB-luciferase activities” value in assay [6] is “blocked”. In assay [7] (setting [12]), the “expression of UBE2C” value is on record as “markedly reduced” and the pS6 levels entry is given as “reduced”. The “levels of FKBP5” value in assay [7] (LNCaP95 cells, presence of androgen (R1881 1 nM), Compound A 25 uM) is recorded as “no effect”. Moreover, the “BEZ-235-increased protein levels of FL-AR, AR-V7 and PSA” value in assay [7] is reported as “at least in part attenuated”. Also, in assay [8], the “androgen-induced FKBP5” value is given as “poor inhibitor” and the “androgen-induced levels of PSA” value is listed as “comparable to enzalutamide”.

`CNC(=O)c1ccc(N2C(=S)N(c3ccc(C#N)c(C(F)(F)F)c3)C(=O)C2(C)C)cc1F` [enzalutamide, 4-(3-(4-cyano-3-(trifluoromethyl)phenyl)-5,5-dimethyl-4-oxo-2-thioxoimidazolidin-1-yl)-2-fluoro-N-methylbenzamide]: in assay [7] (setting [12]), the “expression of UBE2C” value is “not” and the pS6 levels result is “decreased”. Also, the “BEZ-235-increased protein levels of FL-AR, AR-V7 and PSA” value in assay [7] is “at least in part attenuated”. The “androgen-induced levels of PSA” value in assay [8] is on record as “blocking”.

In the case of `CO[C@H]1C[C@@H]2CC[C@@H](C)[C@@](O)(O2)C(=O)C(=O)N2CCCC[C@H]2C(=O)O[C@H]([C@H](C)C[C@@H]2CC[C@@H](OCCO)[C@H](OC)C2)CC(=O)[C@H](C)/C=C(\C)[C@@H](O)[C@@H](OC)C(=O)[C@H](C)C[C@H](C)/C=C/C=C/C=C/1C` [everolimus], the “proliferation (BrdU incorporation)” value in assay [3] was “inhibited”. Further, the pAkt result in assay [7] (LNCaP95 cells, BEZ-235 15 nM, everolimus) was “without decreasing”. Moreover, the “levels of UBE2C” value in assay [7] (LNCaP95 cells, absence of androgen, everolimus) was “reduced”. Moreover, the “protein levels of FL-AR” value in assay [7] (LNCaP95 cells, titration experiments) is “increased”. Further, in assay [7] (LNCaP95 cells, titration, BEZ-235 15 nM, everolimus 10 nM), the pS6 ribosomal protein result is on record as “reduced”.
